Laboratory results taken from paper PMC3004780 (Journal of nuclear medicine : official publication, Society …, 2009).

Legend:
neutrophil FPR = conditions: read-out: Kd for neutrophil FPR; unaltered parent peptide, antagonist; cited from earlier work
[1] = tested on: Klebsiella pneumoniae lung inflammation model; assay type: in vivo, mouse
[2] = tested on: Klebsiella pneumoniae lung inflammation model; assay type: in vivo, mouse; conditions: excised tissue, 18 hr post injection, control n=4, Klebsiella-infected n=6 mice
[3] = mouse, in vivo

Substance | Kd (neutrophil FPR) | Average lung SUV, control mice ([1]; PET 18 hr post injection, n=4, mean ± SD) | Average lung SUV, Klebsiella infected mice ([1]; PET 18 hr post injection, n=6, mean ± SD) | Ligand half-life in the control lung ([1]; mouse, in vivo) | Ligand half-life in the infected lung ([1]; mouse, in vivo) | Mean ratio of radioactivity in infected to control lungs [2] | Blood half-life [3] | Blood clearance (biological) half-life ([3]; iv)
N-cinnamoyl-F-(D)L-F-(D)L-F [cFLFLF] | 2 nM |  |  |  |  |  |  | 
cFLFLF-PEG76-DOTA-^64Cu [cFLFLFK-PEG-^64Cu] |  | 0.028 ± 0.003 | 0.142 ± 0.054 | 4.8 ± 0.7 h | 10.3 ± 2.9 h | 3.8 | approximately 1 hour | 55 ± 8 min
